The source of these data is ChEMBL document CHEMBL4739717, “Methods of treating cartilage disorders through inhibition of clk and dyrk” (2020).

Test [1] in a line: Effect on Wnt signaling pathway in human SW480 cells harbouring TCF/LEF luciferase reporter gene and SP5-Luc reporter gene incubated for 36 to 48 hrs by luminescence assay. In kind it is cell-based. A general note: Reporter assays use an easily measured gene product as a stand-in for the process of interest.
Test [2] deals with Dual specificity tyrosine-phosphorylation-regulated kinase 1A (Homo sapiens, UniProt Q13627). Description: Inhibition of recombinant DYRK1A (unknown origin) using Ser/Thr 18 peptide as substrate incubated for 1 hr in presence of ATP by FRET assay.
Test [3] in a line: Induction of chondrogenesis in human MSC assessed as maximum activity at 100 nM incubated for 6 days by rhodamine B and Nile red staining based imaging analysis relative to control. In kind it is functional. The following applies: BMMSC, 144 h, time 6 day.
Test [4] is described as follows: Induction of chondrogenesis in human MSC assessed as incubated for 6 days by rhodamine B and Nile red staining based imaging analysis. In kind it is functional. The following applies: bmmsc.

For `Nc1cncc(-c2ccc3[nH]nc(-c4cc5c(-c6ccncc6)nccc5[nH]4)c3c2)c1`, the EC50 – broadly, the concentration that produces a half-maximal response – in test [1] was 658 nM; in test [2], 11 nM; in test [4], 100 nM. Further, the Emax (commonly the maximal effect, on the per cent scale that the assay sets) at 0.1 µM in test [3] is 76.8%.

For `CC(C)Nc1cncc(-c2ccc3[nH]nc(-c4nc5c(-c6cccnc6)ccnc5[nH]4)c3n2)c1`, the results for the half-maximal effective concentration (EC50) in test [1], in test [2] and in test [4] were 1750 nM, 14 nM and 10 nM, respectively. In test [3], the Emax at 0.1 µM turned out to be 114%.

As to `CN1CCN(c2nccc3[nH]c(-c4n[nH]c5cnc(-c6cncc(NC(=O)C7CCCCC7)c6)cc45)cc23)CC1`, the EC50 in test [1] stood at 3420 nM; in test [2], 3 nM; in test [4] it was 10 nM. Also, the Emax at 0.1 µM in test [3] amounted to 60.8%.

Consider `CCNCc1cncc(-c2ccc3[nH]nc(-c4cc5c(-c6cc(F)cc(CNS(C)(=O)=O)c6)cncc5[nH]4)c3c2)c1`, for which the EC50 in test [1] was over 10000 nM; in test [2], 21 nM; in test [4] it was 100 nM. Further, in test [3], the Emax at 0.1 µM worked out at 58%.

As for `CN1CCN(c2cccc3[nH]c(-c4n[nH]c5ncc(-c6cncc(CN7CCCCC7)c6)cc45)cc23)CC1`, the EC50 is 4750 nM in test [1], 34 nM in test [2] and 300 nM in test [4]. Besides, the maximal effect (Emax) at 0.1 µM in test [3] was 23.6%.

As for `CC(C)CC(=O)Nc1cncc(-c2ccc3[nH]nc(-c4nc5c(-c6cc(F)cc(CNS(C)(=O)=O)c6)cncc5[nH]4)c3c2)c1`, the figures for the concentration for a half-maximal effect (EC50) in test [1], in test [2] and in test [4] were 5 nM, 16 nM and 100 nM, respectively. Moreover, the Emax at 0.1 µM in test [3] is 118%.

As for `Cn1cc(-c2cc3c(-c4nc5c(-c6cccc(F)c6)nccc5[nH]4)n[nH]c3cn2)cn1`, the concentration giving a half-maximal response (EC50) in test [1] turned out to be 10 nM; in test [2], 26 nM; in test [4] it was 100 nM. Moreover, the maximal effect (Emax) at 0.1 µM in test [3] came out at 110%.

`FC1(F)CCN(Cc2cncc(-c3cnc4[nH]nc(-c5cc6c(-c7ccoc7)cccc6[nH]5)c4c3)c2)C1`: the EC50 amounted to 1000 nM in test [1], 11 nM in test [2] and 30 nM in test [4]. Further, in test [3], the Emax at 0.1 µM was determined as 72.1%.

As for `CC(C)(C)C(=O)Nc1cncc(-c2ccc3[nH]nc(-c4nc5c(N6CCCCC6)cncc5[nH]4)c3c2)c1`, the EC50 in test [1] came out at 41 nM; in test [2] it was 8 nM; in test [4] it was 100 nM. Moreover, the Emax at 0.1 µM in test [3] came to 114%.

For the compound `CN1CCN(c2ccnc3[nH]c(-c4n[nH]c5ccc(-c6cncc(N)c6)cc45)cc23)CC1`, the results for the concentration for a half-maximal effect (EC50) in test [1], in test [2] and in test [4] were 1170 nM, 7 nM and 100 nM, respectively. Moreover, the Emax at 0.1 µM in test [3] stood at 50.2%.

As to `CC(C)CC(=O)Nc1cncc(-c2ccc3[nH]nc(-c4nc5c(-c6ccc(F)cc6)cncc5[nH]4)c3c2)c1`, the 50% effective concentration (EC50) came out at 57 nM in test [1], 60 nM in test [2] and 100 nM in test [4]. Also, the Emax at 0.1 µM in test [3] was found to be 125%.

For the compound `Cc1ccncc1-c1cc2c(-c3cc4cnccc4[nH]3)n[nH]c2cn1`, the 50% effective concentration (EC50) in test [1] was determined as 389 nM; in test [2] it was 11 nM; in test [4], 10 nM. Further, the Emax at 0.1 µM in test [3] worked out at 61.4%.

In the case of `Cc1ccncc1-c1ccc2[nH]nc(-c3cc4c(-c5cccnc5)cncc4[nH]3)c2n1`, the EC50 in test [1] is over 10000 nM; in test [2], 45 nM; in test [4], 10 nM. For the same compound, in test [3], the Emax at 0.1 µM came out at 149%.

Turning to `CCC(=O)Nc1cncc(-c2cnc3[nH]nc(-c4nc5c(-c6ccsc6)cccc5[nH]4)c3c2)c1`, the 50% effective concentration (EC50) in test [1] was 10 nM; in test [2] it was 76 nM; in test [4], 100 nM. Also, the maximal response (Emax) at 0.1 µM in test [3] was determined as 167%.

Take `c1cncc(-c2ccc3[nH]nc(-c4nc5c(-c6ccoc6)cncc5[nH]4)c3c2)c1`: the concentration giving a half-maximal response (EC50) in test [1] stood at 45.4 nM; in test [2], 3 nM; in test [4], 100 nM. The Emax at 0.1 µM in test [3] was determined as 149%.

For the compound `Cc1ccc(-c2cncc3[nH]c(-c4n[nH]c5cnc(-c6cncc(N)c6)cc45)nc23)s1`, the EC50 was 10.9 nM in test [1], 44 nM in test [2] and 100 nM in test [4]. Besides, the maximal effect (Emax) at 0.1 µM in test [3] turned out to be 162%.

As for `Nc1cncc(-c2ccc3[nH]nc(-c4nc5c(-c6ccccc6F)ccnc5[nH]4)c3n2)c1`, the EC50 was over 10000 nM in test [1], 15 nM in test [2] and 10 nM in test [4]. In addition, the Emax at 0.1 µM in test [3] was determined as 127%.

`CCC(=O)Nc1cncc(-c2ccc3[nH]nc(-c4cc5c(-c6cccc(F)c6)ccnc5[nH]4)c3c2)c1`: the EC50 was 13.2 nM in test [1], 33 nM in test [2] and 100 nM in test [4]. Further, the Emax at 0.1 µM in test [3] is 167%.

As for `Cn1cc(-c2cc3c(-c4nc5c(-c6cccc(F)c6)cncc5[nH]4)n[nH]c3cn2)cn1`, the EC50 in test [1] came out at 70 nM; in test [2] it was 15 nM; in test [4], 100 nM. The Emax at 0.1 µM in test [3] came out at 71%.

For `Cc1ncc(-c2ccc3[nH]nc(-c4nc5c(-c6cccc(F)c6)cccc5[nH]4)c3n2)n1C`, the EC50 in test [1] came to 150 nM; in test [2], 80 nM; in test [4], 10 nM. For the same compound, the Emax at 0.1 µM in test [3] was determined as 112%.

For `CN(C)Cc1cncc(-c2cnc3[nH]nc(-c4nc5c(-c6cc(F)cc(N7CCOCC7)c6)cncc5[nH]4)c3c2)c1`, the EC50 in test [1] is 21 nM; in test [2] it was 11 nM; in test [4] it was 30 nM. For the same compound, the Emax at 0.1 µM in test [3] is 114%.

On to `CC(C)CC(=O)Nc1cncc(-c2cnc3[nH]nc(-c4cc5c(-c6ccncc6)cccc5[nH]4)c3c2)c1`, for which the EC50 in test [1] is 711 nM; in test [2] it was 23 nM; in test [4], 30 nM. For the same compound, the maximal effect (Emax) at 0.1 µM in test [3] came out at 71.4%.

In the case of `CN(C)c1cncc(-c2ccc3[nH]nc(-c4nc5c(-c6cccc(F)c6)cncc5[nH]4)c3n2)c1`, the EC50 was 638 nM in test [1], 25 nM in test [2] and 10 nM in test [4]. In addition, in test [3], the Emax at 0.1 µM was 154%.

With `CCCC(=O)Nc1cncc(-c2cnc3[nH]nc(-c4nc5c(-c6ccoc6)cccc5[nH]4)c3c2)c1`, the values for the EC50 in test [1], in test [2] and in test [4] were 63 nM, 25 nM and 100 nM, respectively. Moreover, in test [3], the maximum response (Emax) at 0.1 µM came to 111%.

Turning to `Nc1cncc(-c2ccc3[nH]nc(-c4nc5c(-c6ccccc6F)nccc5[nH]4)c3c2)c1`, the 50% effective concentration (EC50) in test [1] was found to be 8.8 nM; in test [2], 6 nM; in test [4] it was 100 nM. Further, the Emax at 0.1 µM in test [3] stood at 61.9%.

Take `Cc1ccc(-c2cncc3[nH]c(-c4n[nH]c5ccc(-c6cncc(N)c6)nc45)nc23)s1`: the values for the EC50 in test [1], in test [2] and in test [4] were 40.7 nM, 2 nM and 30 nM, respectively. Also, in test [3], the Emax at 0.1 µM was 79.4%.

Consider `FC1(F)CCN(Cc2cncc(-c3ccc4[nH]nc(-c5cc6c(N7CCCCC7)cccc6[nH]5)c4c3)c2)C1`, for which the concentration giving a half-maximal response (EC50) in test [1] was determined as 750 nM; in test [2] it was 22 nM; in test [4], 30 nM. For the same compound, the maximal effect (Emax) at 0.1 µM in test [3] is 160%.

As to `CN1CCN(c2cncc3[nH]c(-c4n[nH]c5ccc(-c6cncc(NC(=O)CC7CCNCC7)c6)cc45)cc23)CC1`, the values for the EC50 in test [1], in test [2] and in test [4] were over 10000 nM, 15 nM and 100 nM, respectively. Besides, in test [3], the Emax at 0.1 µM came to 289%.

Regarding `CN(C)Cc1cncc(-c2cnc3[nH]nc(-c4nc5c(-c6ccsc6)cncc5[nH]4)c3c2)c1`, the EC50 in test [1] was 57 nM; in test [2], 10 nM. In addition, the Emax at 0.1 µM in test [3] was determined as 91.3%.

Take `FC1(F)CCN(Cc2cncc(-c3ccc4[nH]nc(-c5nc6c(-c7ccsc7)cncc6[nH]5)c4c3)c2)C1`: the EC50 stood at 1.8 nM in test [1] and 15 nM in test [2]. The Emax at 0.1 µM in test [3] worked out at 81.3%.

In the case of `CC(C)(C)C(=O)Nc1cncc(-c2ccc3[nH]nc(-c4cc5c(-c6ccncc6)ccnc5[nH]4)c3c2)c1`, the EC50 in test [1] was over 10000 nM; in test [2], 20 nM. Moreover, in test [3], the Emax at 0.1 µM stood at 44.4%.

For `CCC(=O)Nc1cncc(-c2ccc3[nH]nc(-c4cc5c(-c6cccc(F)c6)cncc5[nH]4)c3c2)c1`, the concentration for a half-maximal effect (EC50) in test [1] stood at 45 nM; in test [2], 27 nM. For the same compound, in test [3], the Emax at 0.1 µM was 33.5%.

As to `CC(C)C(=O)Nc1cncc(-c2ccc3[nH]nc(-c4nc5c(-c6cccnc6)cncc5[nH]4)c3c2)c1`, the EC50 in test [1] came to 5.1 nM; in test [2], 10 nM. Further, the Emax at 0.1 µM in test [3] worked out at 34.4%.

As to `CS(=O)(=O)NCc1cc(F)cc(-c2cncc3[nH]c(-c4n[nH]c5ccc(-c6cncc(NC(=O)C7CCC7)c6)cc45)cc23)c1`, the EC50 was 554 nM in test [1] and 34 nM in test [2]. The Emax at 0.1 µM in test [3] is 14.5%.

Regarding `CC(C)Nc1cncc(-c2ccc3[nH]nc(-c4cc5c(-c6cccnc6)cncc5[nH]4)c3c2)c1`, the results for the EC50 in test [1] and in test [2] were 670 nM and 21 nM, respectively. In test [3], the Emax at 0.1 µM turned out to be 41.9%.

Regarding `CC(C)Nc1cncc(-c2ccc3[nH]nc(-c4cc5c(-c6cccnc6)ccnc5[nH]4)c3n2)c1`, the EC50 in test [1] was found to be 255 nM; in test [2], 25 nM. Further, in test [3], the Emax at 0.1 µM is 47.2%.

Turning to `c1cnc2[nH]c(-c3n[nH]c4ccc(-c5cncc(OCCN6CCCC6)c5)cc34)cc2c1`, the EC50 in test [1] amounted to 3300 nM; in test [2], 10 nM. Besides, the Emax at 0.1 µM in test [3] was 42.7%.

`Fc1cccc(-c2nccc3[nH]c(-c4n[nH]c5ccc(-c6cncc(CN7CCCCC7)c6)nc45)cc23)c1`: the EC50 in test [1] was 3750 nM; in test [2], 71 nM. For the same compound, the Emax at 0.1 µM in test [3] amounted to 48%.

`Cc1cn(-c2cncc3[nH]c(-c4n[nH]c5ccc(-c6cncc(NC(=O)C7CCC7)c6)nc45)nc23)cn1`: the EC50 is over 10000 nM in test [1] and 8 nM in test [2]. In addition, the Emax at 0.1 µM in test [3] amounted to 47.2%.

Take `CN1CCN(c2nccc3[nH]c(-c4n[nH]c5ccc(-c6cncc(NC(=O)C7CCCCC7)c6)cc45)cc23)CC1`: the EC50 was 5270 nM in test [1] and 22 nM in test [2]. Moreover, the maximum response (Emax) at 0.1 µM in test [3] turned out to be 37.8%.
